Test results published in US11071730B2, “Substituted 6-azabenzimidazole compounds” (Gilead Sciences, Inc., priority 2018, dated 2021).

Biological target: human HPK1 (MAP4K1) (Homo sapiens (Human), UniProt Q92918)
Assay: HPK1 IC50 Assay (TR-FRET biochemical kinase assay, STK S1 peptide substrate)
Conditions: recombinant human HPK1 kinase domain 0.15 nM, 10 μM ATP, 1 μM STK S1 peptide; geometric mean
In short: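 Pre-activated recombinant kinase domain (insect cells; 0.15 nM) pre-incubated with compounds for 15 min, then 10 μM ATP and 1 μM STK S1 peptide added for 3 h at 25 °C in BES pH 7.0. Phosphorylation read by HTRF (665/620 nm). IC50 from four-parameter fits normalized to staurosporine/DMSO controls, geometric mean of repeats.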

human HPK1 (MAP4K1), sequence (Q92918 17-274): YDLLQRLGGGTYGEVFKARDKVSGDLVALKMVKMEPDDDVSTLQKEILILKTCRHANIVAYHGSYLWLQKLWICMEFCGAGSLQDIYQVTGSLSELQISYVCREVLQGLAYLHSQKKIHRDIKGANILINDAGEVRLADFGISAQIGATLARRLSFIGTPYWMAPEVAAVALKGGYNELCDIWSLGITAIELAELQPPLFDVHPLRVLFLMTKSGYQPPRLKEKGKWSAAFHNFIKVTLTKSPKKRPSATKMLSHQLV

SMILES | IC50 [nM]
CC(C)n1cnc2cc(-c3ccc4c(c3)N([C@H]3C[C@@H](N5CCC(C)(C)C5)C3)C(=O)C43CCN(C(=O)c4nccs4)CC3)nc(Nc3ccncc3F)c21 [Example 162] | 0.1
CC(C)C(=O)N1CCC2(CC1)C(=O)N([C@H]1C[C@@H](N3CCCCC3)C1)c1cc(-c3cc4ncn(C(C)C)c4c(Nc4ccncc4F)n3)ccc12 [Example 171] | 0.5
CC(=O)N1CCC2(CC1)C(=O)N([C@H]1C[C@@H](N3CCC(C)(C)C3)C1)c1cc(-c3cc4ncn(C(C)C)c4c(Nc4cc(C)ncc4F)n3)ccc12 [Example 173] | 0.4
CC(C)n1cnc2cc(-c3ccc4c(c3)N([C@H]3C[C@@H](N5CCCCC5)C3)C(=O)C43CCN(C4COC4)CC3)nc(Nc3ccncc3F)c21 [Example 174, 6-(4-((3-fluoropyridin-4-yl)amino)-3-isopropyl-3H-imidazo[4,5-c]pyridin-6-yl)-1′-(oxetan-3-yl)-1-((1s,3s)-3-(piperidin-1-yl)cyclobutyl)spiro[indoline-3,4′-piperidin]-2-one] | 0.5
CNC(=O)c1cc(Nc2nc(-c3ccc4c(c3)N([C@H]3C[C@@H](N5CCCCC5)C3)C(=O)C4(C)C)cc3ncn(C(C)C)c23)ncc1C [Example 194, 2-((6-(3,3-dimethyl-2-oxo-1-((1s,3s)-3-(piperidin-1-yl)cyclobutyl)indolin-6-yl)-3-isopropyl-3H-imidazo[4,5-c]pyridin-4-yl)amino)-N,5-dimethylisonicotinamide] | 9.6
CC(C)n1cnc2cc(-c3ccc4c(c3)N([C@H]3C[C@@H](N5CCCC(C)(C)C5)C3)C(=O)C43CCN(C(=O)C4CCO4)CC3)nc(Nc3ccncc3F)c21 (stereo partly drawn) [Example 108] | 0.2
CC(C)n1cnc2cc(-c3ccc4c(c3)N([C@H]3C[C@@H](N5CC[C@@H](C)C5)C3)C(=O)C4(C)C)nc(Nc3ccncc3F)c21 [Example 192] | 1.1
CC(=O)N1CCC2(CC1)C(=O)N([C@H]1C[C@@H](N3CC4CCC(C4)C3)C1)c1cc(-c3cc4ncn(C(C)C)c4c(Nc4ccncc4F)n3)ccc12 [Example 181] | 0.1
CO[C@@H](C)C(=O)N1CCC2(CC1)C(=O)N([C@H]1C[C@@H](N3CCCCC3)C1)c1cc(-c3cc4ncn(C(C)C)c4c(Nc4ccncc4F)n3)ccc12 [Example 152] | 0.5
Cc1cc(Nc2nc(-c3ccc4c(c3)N([C@H]3C[C@@H](N5CCCCC5)C3)C(=O)C43CCN(C(=O)C(C)(C)CO)CC3)cc3ncn(C(C)C)c23)c(F)cn1 [Example 132] | 0.8
CC(=O)N1CCC2(CC1)C(=O)N([C@H]1C[C@@H](N3CCCC[C@@H]3C)C1)c1cc(-c3cc4ncn(C(C)C)c4c(Nc4ccncc4F)n3)ccc12 [Example 184] | 0.7

Results, then the compound that gave them:

IC50 [nM] | SMILES
0.07 | CC(C)n1cnc2cc(-c3ccc4c(c3)N([C@H]3C[C@@H](N5CC6CCC(C6)C5)C3)C(=O)C43CCN(C(=O)CO)CC3)nc(Nc3ccncc3F)c21 [Example 128]
0.07 | CC(C)n1cnc2cc(-c3ccc4c(c3)N([C@H]3C[C@@H](N5C[C@H]6CC[C@H]6C5)C3)C(=O)C43CCN(C(=O)[C@@H](C)O)CC3)nc(Nc3ccncc3F)c21 [Example 113]
0.08 | CC(C)n1cnc2cc(-c3ccc4c(c3)N([C@H]3C[C@@H](N5C[C@H]6CC[C@H]6C5)C3)C(=O)C43CCN(C(=O)[C@@H]4CCCO4)CC3)nc(Nc3ccncc3F)c21 [Example 111]
0.06 | CC(C)n1cnc2cc(-c3ccc4c(c3)N([C@H]3C[C@@H](N5CCC(C)(C)C5)C3)C(=O)C43CCN(C(=O)C4(C)COC4)CC3)nc(Nc3ccc(F)nc3F)c21 [Example 165]
0.2 | CCC1(C(=O)N2CCC3(CC2)C(=O)N([C@H]2C[C@@H](N4CCCCC4)C2)c2cc(-c4cc5ncn(C(C)C)c5c(Nc5ccncc5F)n4)ccc23)COC1 [Example 138]
0.3 | CC(C)n1cnc2cc(-c3ccc4c(c3)N([C@H]3C[C@@H](N5CCCCC5)C3)C(=O)C43CCN(C(=O)C4(CO)CC4)CC3)nc(Nc3ccncc3F)c21 [Example 134]
0.5 | CC(C)n1cnc2cc(-c3ccc4c(c3)N([C@H]3C[C@@H](N5CCC(C)(C)C5)C3)C(=O)C43CCN(C(=O)[C@@H](C)O)CC3)nc(Nc3ccncc3F)c21 [Example 120]
0.1 | CC(=O)N1CCC2(CC1)C(=O)N([C@H]1C[C@@H](N3CC4CCC(C4)C3)C1)c1cc(-c3cc4ncn(C(C)C)c4c(Nc4cc(C)ncc4F)n3)ccc12 [Example 166]
0.3 | CC(C)n1cnc2cc(-c3ccc4c(c3)N([C@H]3C[C@@H](N5CCCCC5)C3)C(=O)C43CCN(C(=O)C4COC4)CC3)nc(Nc3ccncc3F)c21 [Example 144]
3.2 | CC(C)n1cnc2cc(-c3ccc4c(c3)N([C@H]3C[C@@H](N5CCCC5)C3)C(=O)C4(C)C)nc(Nc3ccncc3F)c21 [Example 188]
0.1 | CC(=O)N1CCC2(CC1)C(=O)N([C@H]1C[C@@H](N3CCCCCC3)C1)c1cc(-c3cc4ncn(C(C)C)c4c(Nc4ccncc4F)n3)ccc12 [Example 185]

Same assay, conditions: recombinant human HPK1 kinase domain 0.15 nM, 10 μM ATP, 1 μM STK S1 peptide; geometric mean of multiple experiments

SMILES | IC50 [nM]
CC(C)n1cnc2cc(-c3ccc4c(c3)N([C@H]3C[C@@H](N5CCC(C)(C)C5)C3)C(=O)C43CCN(C4COC4)CC3)nc(Nc3ccncc3F)c21 [Example 75] | 0.4
CC(C)n1cnc2cc(-c3ccc4c(c3)N([C@H]3C[C@@H](N5CC[C@@H](C)C5)C3)C(=O)C43CCN(C4COC4)CC3)nc(Nc3ccncc3F)c21 [Example 44] | 1.1
CC(C)n1cnc2cc(-c3ccc4c(c3)N([C@H]3C[C@@H](N5CCC(C(F)F)C5)C3)C(=O)C43CCN(C4COC4)CC3)nc(Nc3ccncc3F)c21 (stereo partly drawn) [Example 48] | 1.5
CC(C)n1cnc2cc(-c3ccc4c(c3)N([C@H]3C[C@@H](N5CC[C@](C)(F)C5)C3)C(=O)C43CCN(C4COC4)CC3)nc(Nc3ccncc3F)c21 [Example 86] | 0.6
CC(C)n1cnc2cc(-c3ccc4c(c3)N([C@H]3C[C@@H](N5C6CCC5COC6)C3)C(=O)C43CCN(C4COC4)CC3)nc(Nc3ccncc3F)c21 [Example 50] | 0.5
COc1cc(F)c(Nc2nc(-c3ccc4c(c3)N([C@H]3C[C@@H](N5CCCCC5)C3)C(=O)C43CCN(C(C)=O)CC3)cc3ncn(C(C)C)c23)cn1 [Example 97] | 0.2
CC(C)n1cnc2cc(-c3ccc4c(c3)N([C@H]3C[C@@H](N5C[C@@H](C)[C@@H](C)C5)C3)C(=O)C43CCN(C(=O)C(C)(C)CO)CC3)nc(Nc3ccncc3F)c21 [Example 10] | 0.05
CC(C)n1cnc2cc(-c3ccc4c(c3)N([C@H]3C[C@@H](N5CCC(C)(C)C5)C3)C(=O)C43CCN(C(=O)[C@H]4OCC[C@H]4C)CC3)nc(Nc3ccncc3F)c21 [Example 19B, 1-((1s,3R)-3-(3,3-dimethylpyrrolidin-1-yl)cyclobutyl)-6-(4-((3-fluoropyridin-4-yl)amino)-3-isopropyl-3H-imidazo[4,5-c]pyridin-6-yl)-1′-((2S,3R)-3-methyltetrahydrofuran-2-carbonyl)spiro[indoline-3,4′-piperidin]-2-one] | 0.1
CC(=O)N1CCC2(CC1)C(=O)N([C@H]1C[C@@H](N3CCCCC3)C1)c1cc(-c3cc4ncn(C(C)C)c4c(Nc4ccncc4F)n3)ccc12 [Example 67, 1′-acetyl-6-(4-((3-fluoropyridin-4-yl)amino)-3-isopropyl-3H-imidazo[4,5-c]pyridin-6-yl)-1-((1s,3s)-3-(piperidin-1-yl)cyclobutyl)spiro[indoline-3,4′-piperidin]-2-one] | 0.5
CC(C)n1cnc2cc(-c3ccc4c(c3)N([C@H]3C[C@@H](N5CC(C)(C)C[C@@H]5CO)C3)C(=O)C43CCN(C4COC4)CC3)nc(Nc3ccncc3F)c21 [Example 39] | 0.6
CC(C)n1cnc2cc(-c3ccc4c(c3)N([C@H]3C[C@@H](N5CC[C@@H](F)C5)C3)C(=O)C43CCN(C4COC4)CC3)nc(Nc3ccncc3F)c21 [Example 42] | 0.6

Continued, values first:

IC50 [nM] | SMILES
2.2 | CC(C)n1cnc2cc(-c3ccc4c(c3)N([C@H]3C[C@@H](N5CCCCC5)C3)C(=O)[C@]4(C)O)nc(Nc3ccncc3F)c21 [Example 55B, 6-(4-((3-fluoropyridin-4-yl)amino)-3-isopropyl-3H-imidazo[4,5-c]pyridin-6-yl)-3-hydroxy-3-methyl-1-((1s,3s)-3-(piperidin-1-yl)cyclobutyl)indolin-2-one]
0.3 | CC(C)n1cnc2cc(-c3ccc4c(c3)N([C@H]3C[C@@H](N5CCCC6(CC6)C5)C3)C(=O)C43CCN(C(=O)[C@@H](C)O)CC3)nc(Nc3ccncc3F)c21 [Example 36]
0.2 | CC(C)n1cnc2cc(-c3ccc4c(c3)N([C@H]3C[C@@H](N5CCC(C)(C)C5)C3)C(=O)C43CCOCC3)nc(Nc3ccncc3F)c21 [Example 71]
1.5 | Cc1cc(Nc2nc(-c3ccc4c(c3)N([C@H]3C[C@@H](N5CCCCC5)C3)C(=O)C4(C)C)cc3ncn(C(C)C)c23)c(F)cn1 [Example 54]
0.9 | CC(C)n1cnc2cc(-c3ccc4c(c3)N([C@H]3C[C@@H](N5CCCCC5)C3)C(=O)C4(C)O)nc(Nc3ccncc3F)c21 (stereo partly drawn) [Example 55, 6-(4-((3-fluoropyridin-4-yl)amino)-3-isopropyl-3H-imidazo[4,5-c]pyridin-6-yl)-3-hydroxy-3-methyl-1-((1s,3s)-3-(piperidin-1-yl)cyclobutyl)indolin-2-one]
0.8 | CC(C)n1cnc2cc(-c3ccc4c(c3)N([C@H]3C[C@@H](N5CCCCC5)C3)C(=O)C4(C)C)nc(Nc3ccncc3F)c21 [Example 83]
0.7 | CC[C@H](C)n1cnc2cc(-c3ccc4c(c3)N([C@H]3C[C@@H](N5CCCCC5)C3)C(=O)C43CCN(C(C)=O)CC3)nc(Nc3ccncc3F)c21 [Example 72]
0.6 | CC(C)n1cnc2cc(-c3ccc4c(c3)N([C@H]3C[C@@H](N5CCCCC5)C3)C(=O)C43CCN(C(=O)C(C)(C)O)CC3)nc(Nc3ccncc3F)c21 [Example 3]
6.6 | CC(=O)N1CCC2(CC1)C(=O)N([C@H]1C[C@@H](N3CCCCC3)C1)c1cc(-c3cc4ncn(C(C)C)c4c(Nc4cc(C(=O)NC(C)C)ncc4F)n3)ccc12 [Example 74]
